Data reported in ChEMBL document CHEMBL5696441 (Nat Chem Biol, 2011).

Key:
[1] = target: Serine/threonine-protein kinase Nek9 (Homo sapiens) (UniProt Q8TD19); test: Inhibition of NEK9 (unknown origin) assessed as remaining activity at 1 uM by Kinome scan method relative to control
[2] = target: Mitogen-activated protein kinase 10 (Homo sapiens) (UniProt P53779); test: Inhibition of JNK3 (unknown origin) assessed as remaining activity at 1 uM by Kinome scan method relative to control
[3] = target: Protein kinase C alpha type (Homo sapiens) (UniProt P17252); test: Inhibition of human PKCalpha assessed as residual activity at 1 uM using 3xChocktide-PKC(19-31) as substrate in presence of 33P-ATP by ProQinase assay relative to control
[4] = tested on: Hepatocyte growth factor receptor (Homo sapiens), P08581 [D1228H]; test: Inhibition of human MET D1228H mutant assessed as residual activity at 1 uM using poly(Ala,Glu,Lys,Tyr)6:2:5:1 as substrate in presence of 33P-ATP by ProQinase assay relative to control
[5] = target: Ephrin type-B receptor 1 (Homo sapiens) (UniProt P54762); test: Inhibition of EPHB1 (unknown origin) assessed as remaining activity at 1 uM by Kinome scan method relative to control
[6] = target: RAC-gamma serine/threonine-protein kinase (Homo sapiens) (UniProt Q9Y243); test: Inhibition of human AKT3 assessed as residual activity at 1 uM using RBER-GSK3(14-27) as substrate in presence of 33P-ATP by ProQinase assay relative to control
RAC-gamma serine/threonine-protein kinase (Homo sapiens), sequence (Q9Y243 whole entry): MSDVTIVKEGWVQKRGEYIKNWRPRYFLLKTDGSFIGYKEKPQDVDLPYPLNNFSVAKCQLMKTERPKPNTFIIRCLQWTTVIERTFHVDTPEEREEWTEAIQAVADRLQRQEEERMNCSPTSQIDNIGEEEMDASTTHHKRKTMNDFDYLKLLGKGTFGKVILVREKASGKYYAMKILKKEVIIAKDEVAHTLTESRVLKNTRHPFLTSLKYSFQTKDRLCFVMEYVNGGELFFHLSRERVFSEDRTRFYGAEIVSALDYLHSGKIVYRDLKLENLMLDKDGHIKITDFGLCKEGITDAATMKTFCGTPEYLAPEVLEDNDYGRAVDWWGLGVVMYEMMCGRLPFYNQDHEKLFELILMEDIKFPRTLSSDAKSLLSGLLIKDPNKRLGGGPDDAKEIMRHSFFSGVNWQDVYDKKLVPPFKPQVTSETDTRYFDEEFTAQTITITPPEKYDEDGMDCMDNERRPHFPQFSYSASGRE

[7] = tested on: Mast/stem cell growth factor receptor Kit (Homo sapiens), P10721 [V559D]; test: Inhibition of KIT V559D mutant (unknown origin) assessed as remaining activity at 1 uM by Kinome scan method relative to control
Mast/stem cell growth factor receptor Kit (Homo sapiens), P10721 [V559D], sequence (P10721 whole entry V559D): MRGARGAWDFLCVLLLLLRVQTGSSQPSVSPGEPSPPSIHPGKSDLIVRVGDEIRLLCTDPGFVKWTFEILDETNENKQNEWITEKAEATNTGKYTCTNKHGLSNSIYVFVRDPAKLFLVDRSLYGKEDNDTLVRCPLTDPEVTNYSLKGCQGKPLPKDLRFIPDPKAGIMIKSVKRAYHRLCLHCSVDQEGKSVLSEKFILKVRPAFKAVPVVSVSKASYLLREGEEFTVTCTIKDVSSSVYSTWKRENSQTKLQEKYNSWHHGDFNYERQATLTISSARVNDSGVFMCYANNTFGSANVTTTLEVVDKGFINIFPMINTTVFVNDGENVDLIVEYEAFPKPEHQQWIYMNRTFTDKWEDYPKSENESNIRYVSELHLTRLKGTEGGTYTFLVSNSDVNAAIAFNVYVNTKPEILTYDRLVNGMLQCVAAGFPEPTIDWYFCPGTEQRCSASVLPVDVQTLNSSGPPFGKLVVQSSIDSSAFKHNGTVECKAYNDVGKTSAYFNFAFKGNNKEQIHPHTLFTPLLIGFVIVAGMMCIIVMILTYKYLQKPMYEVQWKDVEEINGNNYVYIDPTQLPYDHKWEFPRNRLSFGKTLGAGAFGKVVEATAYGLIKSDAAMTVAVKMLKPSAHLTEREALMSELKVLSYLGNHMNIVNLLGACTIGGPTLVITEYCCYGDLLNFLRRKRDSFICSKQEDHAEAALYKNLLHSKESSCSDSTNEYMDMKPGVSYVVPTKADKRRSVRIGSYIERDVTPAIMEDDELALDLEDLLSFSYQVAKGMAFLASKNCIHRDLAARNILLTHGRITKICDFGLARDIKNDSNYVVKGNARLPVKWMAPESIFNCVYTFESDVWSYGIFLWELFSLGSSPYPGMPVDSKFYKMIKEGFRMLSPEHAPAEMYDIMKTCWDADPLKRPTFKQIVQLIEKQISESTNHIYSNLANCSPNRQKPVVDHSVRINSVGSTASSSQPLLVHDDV

[8] = target: Serine/threonine-protein kinase 16 (Homo sapiens) (UniProt O75716); test: Inhibition of STK16 (unknown origin) assessed as remaining activity at 1 uM by Kinome scan method relative to control
[9] = target: Tyrosine-protein kinase SYK (Homo sapiens) (UniProt P43405); test: Inhibition of SYK (unknown origin) assessed as remaining activity at 1 uM by Kinome scan method relative to control
[10] = target: Receptor tyrosine-protein kinase erbB-2 (Homo sapiens) (UniProt P04626); test: Inhibition of human ERBB2 assessed as residual activity at 1 uM using polyEY as substrate in presence of 33P-ATP by ProQinase assay relative to control
[11] = target: Receptor-type tyrosine-protein kinase FLT3 (Homo sapiens) (UniProt P36888); test: Inhibition of FLT3 (unknown origin) assessed as remaining activity at 1 uM by Kinome scan method relative to control
[12] = Anti-inflammatory activity against human derived medium respond PBMC cells assessed as inhibition in stimulated TNF-alpha cytokine release incubated for 2 hrs in the presence of LPS/SEB/aCD28 by Luminex based sandwich immunoassay; type: functional, cell-based
[13] = target: Misshapen-like kinase 1 (Homo sapiens) (UniProt Q8N4C8); test: Inhibition of human MINK1 assessed as residual activity at 1 uM using RBER-CHKtide as substrate in presence of 33P-ATP by ProQinase assay relative to control
[14] = Anti-inflammatory activity against human derived medium respond PBMC cells assessed as inhibition in stimulated IL-4 cytokine release incubated for 2 hrs in the presence of LPS/SEB/aCD28 by Luminex based sandwich immunoassay; type: functional, cell-based
[15] = target: Serine/threonine-protein kinase D2 (Homo sapiens) (UniProt Q9BZL6); test: Inhibition of human PRKD2 assessed as residual activity at 1 uM using RBER-CHKtide as substrate in presence of 33P-ATP by ProQinase assay relative to control
Serine/threonine-protein kinase D2 (Homo sapiens), sequence (Q9BZL6 whole entry): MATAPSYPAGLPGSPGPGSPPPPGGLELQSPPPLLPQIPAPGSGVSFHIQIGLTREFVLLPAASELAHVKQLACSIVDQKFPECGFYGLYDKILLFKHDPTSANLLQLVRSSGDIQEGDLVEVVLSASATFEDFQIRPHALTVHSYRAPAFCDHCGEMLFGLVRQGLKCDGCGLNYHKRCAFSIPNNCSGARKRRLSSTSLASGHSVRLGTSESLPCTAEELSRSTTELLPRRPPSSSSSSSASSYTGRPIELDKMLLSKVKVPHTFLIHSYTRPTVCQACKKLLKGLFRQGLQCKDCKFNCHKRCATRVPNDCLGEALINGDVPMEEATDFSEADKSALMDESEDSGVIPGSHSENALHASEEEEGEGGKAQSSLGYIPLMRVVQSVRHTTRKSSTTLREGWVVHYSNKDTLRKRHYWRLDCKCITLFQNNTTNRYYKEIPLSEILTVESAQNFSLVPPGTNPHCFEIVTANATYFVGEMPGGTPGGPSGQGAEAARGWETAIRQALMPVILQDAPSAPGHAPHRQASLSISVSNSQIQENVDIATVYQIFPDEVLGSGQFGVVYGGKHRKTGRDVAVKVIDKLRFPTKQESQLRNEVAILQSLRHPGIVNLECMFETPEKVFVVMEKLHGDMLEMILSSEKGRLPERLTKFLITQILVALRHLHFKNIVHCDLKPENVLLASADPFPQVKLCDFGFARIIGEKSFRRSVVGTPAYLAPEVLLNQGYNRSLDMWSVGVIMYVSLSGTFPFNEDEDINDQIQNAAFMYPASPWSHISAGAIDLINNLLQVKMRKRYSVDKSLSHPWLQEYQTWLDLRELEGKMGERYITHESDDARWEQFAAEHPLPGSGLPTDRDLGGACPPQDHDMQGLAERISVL

[16] = target: Wee1-like protein kinase 2 (Homo sapiens) (UniProt P0C1S8); test: Inhibition of WEE2 (unknown origin) assessed as remaining activity at 1 uM by Kinome scan method relative to control
[17] = target: Serine/threonine-protein kinase haspin (Homo sapiens) (UniProt Q8TF76); test: Inhibition of human GSG2 assessed as residual activity at 1 uM using histon H3 as substrate in presence of 33P-ATP by ProQinase assay relative to control
Serine/threonine-protein kinase haspin (Homo sapiens), sequence (Q8TF76 whole entry): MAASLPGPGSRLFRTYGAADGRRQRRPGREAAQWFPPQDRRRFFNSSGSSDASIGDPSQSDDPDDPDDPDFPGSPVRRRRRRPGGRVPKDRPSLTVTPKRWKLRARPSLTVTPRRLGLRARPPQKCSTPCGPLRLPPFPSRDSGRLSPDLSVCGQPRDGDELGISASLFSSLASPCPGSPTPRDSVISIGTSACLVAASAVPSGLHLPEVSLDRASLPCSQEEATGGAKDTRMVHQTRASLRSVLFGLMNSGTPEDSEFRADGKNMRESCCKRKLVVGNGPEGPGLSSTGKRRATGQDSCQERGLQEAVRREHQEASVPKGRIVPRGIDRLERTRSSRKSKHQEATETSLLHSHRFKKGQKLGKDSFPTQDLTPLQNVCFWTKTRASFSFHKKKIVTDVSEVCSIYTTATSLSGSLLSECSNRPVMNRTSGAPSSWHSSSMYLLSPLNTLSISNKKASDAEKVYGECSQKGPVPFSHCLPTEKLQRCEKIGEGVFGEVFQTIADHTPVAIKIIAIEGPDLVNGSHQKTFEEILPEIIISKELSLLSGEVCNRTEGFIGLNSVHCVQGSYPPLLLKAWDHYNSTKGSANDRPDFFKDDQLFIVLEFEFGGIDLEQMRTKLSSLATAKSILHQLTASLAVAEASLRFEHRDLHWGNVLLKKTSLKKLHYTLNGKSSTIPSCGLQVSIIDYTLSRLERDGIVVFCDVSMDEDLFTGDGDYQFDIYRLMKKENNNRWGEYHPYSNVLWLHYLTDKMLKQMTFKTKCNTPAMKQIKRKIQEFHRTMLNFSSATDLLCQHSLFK

[18] = target: Casein kinase II subunit alpha (Homo sapiens) (UniProt P68400); test: Inhibition of human CK2alpha1 assessed as residual activity at 1 uM using casein as substrate in presence of 33P-ATP by ProQinase assay relative to control
[19] = target: Ribosomal protein S6 kinase alpha-3 (Homo sapiens) (UniProt P51812); test: Inhibition of human RPS6KA3 assessed as residual activity at 1 uM using bio-4xCHKT as substrate in presence of 33P-ATP by ProQinase assay relative to control
[20] = target: Vascular endothelial growth factor receptor 2 (Homo sapiens) (UniProt P35968); test: Inhibition of human VEGFR2 assessed as residual activity at 1 uM using polyEY as substrate in presence of 33P-ATP by ProQinase assay relative to control
[21] = target: Tyrosine-protein kinase Fgr (Homo sapiens) (UniProt P09769); test: Inhibition of human FGR assessed as residual activity at 1 uM using polyEY as substrate in presence of 33P-ATP by ProQinase assay relative to control
[22] = tested on: Serine/threonine-protein kinase B-raf (Homo sapiens), P15056 [V600E]; test: Inhibition of human BRAF V600E mutant assessed as residual activity at 1 uM using MEK1-K97M as substrate in presence of 33P-ATP by ProQinase assay relative to control
[23] = target: Proto-oncogene tyrosine-protein kinase Src (Homo sapiens) (UniProt P12931); test: Inhibition of human GST/His-tagged SRC assessed as residual activity at 1 uM using PolyEY as substrate in presence of 33P-ATP by ProQinase assay relative to control
[24] = tested on: Epidermal growth factor receptor (Homo sapiens), P00533 [L858R,T790M]; test: Inhibition of EGFR L858R/T790M mutant (unknown origin) assessed as remaining activity at 1 uM by Kinome scan method relative to control
[25] = tested on: Epidermal growth factor receptor (Homo sapiens), P00533 [T790M]; test: Inhibition of human EGFR T790M mutant assessed as residual activity at 1 uM using PolyEY as substrate in presence of 33P-ATP by ProQinase assay relative to control
[26] = target: cAMP-dependent protein kinase catalytic subunit PRKX (Homo sapiens) (UniProt P51817); test: Inhibition of PRKX (unknown origin) assessed as remaining activity at 1 uM by Kinome scan method relative to control
[27] = target: Tyrosine-protein kinase ABL1 (Homo sapiens) (UniProt P00519); test: Inhibition of human ABL1 assessed as residual activity at 1 uM using poly(Ala,Glu,Lys,Tyr)6:2:5:1 as substrate in presence of 33P-ATP by ProQinase assay relative to control
Tyrosine-protein kinase ABL1 (Homo sapiens), sequence (P00519 whole entry): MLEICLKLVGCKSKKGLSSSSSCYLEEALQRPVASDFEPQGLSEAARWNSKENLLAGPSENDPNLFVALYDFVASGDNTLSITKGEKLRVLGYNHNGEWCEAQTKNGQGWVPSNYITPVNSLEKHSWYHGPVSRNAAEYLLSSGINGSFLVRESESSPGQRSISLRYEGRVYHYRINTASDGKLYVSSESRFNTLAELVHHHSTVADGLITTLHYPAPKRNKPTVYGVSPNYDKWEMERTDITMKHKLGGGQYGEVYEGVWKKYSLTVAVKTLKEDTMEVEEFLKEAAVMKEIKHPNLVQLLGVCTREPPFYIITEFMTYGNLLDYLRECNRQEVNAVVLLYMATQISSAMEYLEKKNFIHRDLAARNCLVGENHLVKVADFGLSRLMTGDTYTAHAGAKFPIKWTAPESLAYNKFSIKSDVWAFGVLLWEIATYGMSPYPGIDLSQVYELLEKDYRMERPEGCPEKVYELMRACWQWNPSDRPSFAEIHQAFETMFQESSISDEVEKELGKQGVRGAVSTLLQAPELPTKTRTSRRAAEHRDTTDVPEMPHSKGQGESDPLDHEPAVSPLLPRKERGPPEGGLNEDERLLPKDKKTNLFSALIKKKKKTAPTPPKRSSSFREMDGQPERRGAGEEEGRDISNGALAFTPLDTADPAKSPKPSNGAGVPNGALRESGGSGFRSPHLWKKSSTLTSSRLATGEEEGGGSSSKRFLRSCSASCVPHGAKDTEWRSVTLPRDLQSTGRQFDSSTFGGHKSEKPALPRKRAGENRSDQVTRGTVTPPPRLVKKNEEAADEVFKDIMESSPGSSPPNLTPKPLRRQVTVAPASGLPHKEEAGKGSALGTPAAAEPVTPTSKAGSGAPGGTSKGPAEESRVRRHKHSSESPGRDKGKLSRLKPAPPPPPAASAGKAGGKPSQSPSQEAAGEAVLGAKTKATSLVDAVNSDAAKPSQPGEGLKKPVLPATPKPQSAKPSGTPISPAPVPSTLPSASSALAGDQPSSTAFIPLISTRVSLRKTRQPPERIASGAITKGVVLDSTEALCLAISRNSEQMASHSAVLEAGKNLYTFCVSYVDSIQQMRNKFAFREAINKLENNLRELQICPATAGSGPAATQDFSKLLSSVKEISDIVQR

O=C1c2ccc(Nc3ccc(F)cc3F)cc2CCc2ccc(OC[C@H](O)CO)cc21 [Skepinone-L]
Activity [1]: 89%
Activity [2]: 61%
Activity [3]: 96%
Activity [4]: 97%
Activity [5]: 98%
Activity [6]: 94%
Activity [7]: 100%
Activity [8]: 87%
Activity [9]: 100%
Activity [10]: 91%
Activity [11]: 97%
IC50 [12]: 0.86 µM
Activity [13]: 94%
IC50 [14]: Not Active
Activity [15]: 85%
Activity [16]: 90%
Activity [17]: 82%
Activity [18]: 95%
Activity [19]: 89%
Activity [20]: 91%
Activity [21]: 100%
Activity [22]: 135%
Activity [23]: 119%
Activity [24]: 100%
Activity [25]: 119%
Activity [26]: 89%
Activity [27]: 95%
